Earlier results on 1 compound are cited in patent US20080268043A1, “Controlled Release Compositions Comprising an Antipsychotic Agent” (ELAN PHARMA INTERNATIONAL LIMITED, priority 2005, published 2008).

Structures are written as SMILES.

For the data set the following is noted: within the proposed clinical dose range.

Take `OCCOCCN1CCN(C2=Nc3ccccc3Sc3ccccc32)CC1` [quetiapine]: the mean terminal half-life entry is recorded as “about 6 hours”.
